Source: patent publication US12281149B2, “Modulators of G-protein coupled receptors” (priority 2021, dated 2025)
Read-outs that look alike come from different tables or passages of the source. *1 amine or outer side, *2 acyl side, *3 side chain or, on linkers, in order; H or OH if unused. Where a SMILES comes first, the peptide text is derived from it. Side-chain parts run from the residue outwards. [ ]: non-standard residue; d: D form. The star is where a group is joined. C20 diacid = O=C(O)CCCCCCCCCCCCCCCCCCC(=O)*; Phenylacetyl(3-Cl) = O=C(Cc1cccc(Cl)c1)*; γGlu = O=C(O)[C@H](CCC(=O)[*:2])N[*:1]; NH(4-Me-phenyl) = Cc1ccc(N*)cc1; NH(4-F-phenyl) = Fc1ccc(N*)cc1; X30 = CC(C)(C(=O)*)c1ccc(F)cc1; AEEA = NCCOCCOCC(=O)O; Aib = CC(C)(N)C(=O)O; CO = O=C([*:1])[*:2]; GABA = NCCCC(=O)O; βAla = NCCC(=O)O

Assays:
Type in all cases: cell-based
GIP receptor [1] = target: T1, GIP receptor (Homo sapiens, UniProt P48546); assay: HitHunter cAMP assay, GIP receptor; settings: for Emax: read-out: Emax GIP-1R
T1 sequence (P48546 22-466): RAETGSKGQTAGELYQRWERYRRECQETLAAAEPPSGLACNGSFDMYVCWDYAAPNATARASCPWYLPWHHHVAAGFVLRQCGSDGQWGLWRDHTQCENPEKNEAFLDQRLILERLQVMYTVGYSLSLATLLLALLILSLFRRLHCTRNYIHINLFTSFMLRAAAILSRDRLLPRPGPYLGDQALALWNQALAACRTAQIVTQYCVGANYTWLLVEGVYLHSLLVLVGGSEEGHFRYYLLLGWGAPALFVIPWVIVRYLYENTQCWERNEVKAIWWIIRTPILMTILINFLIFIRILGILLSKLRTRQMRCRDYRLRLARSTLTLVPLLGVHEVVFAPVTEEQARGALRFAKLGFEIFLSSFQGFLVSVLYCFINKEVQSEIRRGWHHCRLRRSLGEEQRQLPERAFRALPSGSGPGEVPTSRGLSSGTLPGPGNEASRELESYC

GLP-1 receptor [2] = target: T2, GLP-1 receptor (Homo sapiens, UniProt P43220); assay: HitHunter cAMP assay, GLP-1 receptor; settings: for Emax: read-out: Emax GLP-1R
T2 sequence (P43220 24-463): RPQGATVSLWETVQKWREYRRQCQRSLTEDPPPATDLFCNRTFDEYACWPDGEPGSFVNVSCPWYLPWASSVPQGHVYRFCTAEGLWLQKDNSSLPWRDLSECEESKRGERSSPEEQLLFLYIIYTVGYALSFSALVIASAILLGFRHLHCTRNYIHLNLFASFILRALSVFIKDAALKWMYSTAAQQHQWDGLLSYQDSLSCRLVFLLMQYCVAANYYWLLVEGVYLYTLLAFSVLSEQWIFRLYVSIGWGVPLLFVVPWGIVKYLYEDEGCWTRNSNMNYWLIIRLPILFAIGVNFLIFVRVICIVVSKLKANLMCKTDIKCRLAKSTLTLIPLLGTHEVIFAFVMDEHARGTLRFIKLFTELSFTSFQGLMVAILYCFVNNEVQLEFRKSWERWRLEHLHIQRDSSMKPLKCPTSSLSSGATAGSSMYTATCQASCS

GLP-1 receptor [3] = target: T2, GLP-1 receptor; assay: PathHunter β-arrestin assay, GLP-1 receptor; parameters: host or cells: PathHunter CHO-K1 GLP1R β-Arrestin Cell Line
GIP receptor [4] = target: T1, GIP receptor; assay: PathHunter β-arrestin assay, GIP receptor; parameters: host or cells: PathHunter CHO-K1 GIPR β-Arrestin Cell Line
[5] = CHO cells stably expressing GIP receptor, cAMP accumulation, 30 min, read-out: EC50 GIP-1R
[6] = CHO cells, cAMP, normalized to maximum signal from GIP (high) and DMSO (low)
[7] = CHO cells stably expressing human GLP-1 receptor, cAMP accumulation, 30 min, read-out: EC50 GLP-1R
[8] = CHO cells, cAMP, normalized to maximum signal from GLP-1 (high) and DMSO (low)
[9] = β-arrestin-2 recruitment, PathHunter CHO-K1 GLP1R β-Arrestin Cell Line, 90 min at 37° C., normalized to GLP-1, read-out: GLP-1R β Arrestin EC50
[10] = β-arrestin-2 recruitment, PathHunter CHO-K1 GIPR β-Arrestin Cell Line, 90 min at 37° C., normalized to GIP, read-out: GIPR β Arrestin EC50

Compound | EC50 (GIP receptor [1]) [µM] | Emax (GIP receptor [1]; CHO) [%] | EC50 (GLP-1 receptor [2]) [µM] | Emax (GLP-1 receptor [2]; CHO) [%] | EC50 (GLP-1 receptor [3]) [µM] | EC50 (GIP receptor [4]) [µM] | EC50 (GIP receptor [1]; [5]) [µM] | Emax (GIP receptor [1]; [6]) [%] | EC50 (GLP-1 receptor [2]; [7]) [µM] | Emax (GLP-1 receptor [2]; [8]) [%] | EC50 (GLP-1 receptor [3]; [9]) [µM] | EC50 (GIP receptor [4]; [10]) [µM]
CC[C@H](C)[C@H](NC(=O)[C@H](CC(C)C)NC(=O)[C@H](Cc1c[nH]c2ccccc12)NC(=O)[C@H](CCC(N)=O)NC(=O)[C@@H](NC(=O)[C@H](Cc1ccccc1)NC(=O)[C@H](C)NC(=O)[C@H](CCCCNC(=O)COCCOCCNC(=O)COCCOCCNC(=O)CC[C@H](NC(=O)CCCCCCCCCCCCCCCCCCC(=O)O)C(=O)O)NC(=O)[C@H](CCC(N)=O)NC(=O)[C@H](C)NC(=O)[C@@H](NC(=O)[C@H](CCCCN)NC(=O)[C@H](CC(=O)O)NC(=O)[C@H](CC(C)C)NC(=O)C(C)(C)NC(=O)[C@@H](NC(=O)[C@H](CO)NC(=O)[C@H](Cc1ccc(O)cc1)NC(=O)[C@H](CC(=O)O)NC(=O)[C@H](CO)NC(=O)[C@@H](NC(=O)[C@H](Cc1ccccc1)NC(=O)[C@@H](NC(=O)CNC(=O)[C@H](CCC(=O)O)NC(=O)CCNC(=O)[C@H](C)NC(=O)Nc1ccc(C)cc1)[C@@H](C)O)[C@@H](C)O)[C@@H](C)CC)[C@@H](C)CC)C(C)C)C(=O)N[C@@H](C)C(=O)NCC(=O)NCC(=O)N1CCC[C@H]1C(=O)N[C@@H](CO)C(=O)N[C@@H](CO)C(=O)NCC(=O)N[C@@H](C)C(=O)N1CCC[C@H]1C(=O)N1CCC[C@H]1C(=O)N1CCC[C@H]1C(=O)N[C@@H](CO)C(N)=O [Compound 272] ({NH(4-Me-phenyl)-CO}-A[βAla]EGTFTSDYSI[Aib]LDKIAQK([AEEA-AEEA-γGlu-C20 diacid])AFVQWLIAGGPSSGAPPPS-NH2) | 0.01 to 0.1 | 91 | 0.01 to 0.1 | 75 | > 1 | > 1 | – | – | – | – | – | –
CC[C@H](C)[C@H](NC(=O)[C@H](CO)NC(=O)[C@H](Cc1ccc(O)cc1)NC(=O)[C@H](CC(=O)O)NC(=O)[C@H](CO)NC(=O)[C@@H](NC(=O)[C@H](Cc1ccccc1)NC(=O)[C@@H](NC(=O)CNC(=O)[C@H](CCC(=O)O)NC(=O)CCNC(=O)C1(c2ccc(F)cc2F)CCCC1)[C@@H](C)O)[C@@H](C)O)C(=O)N[C@@H](Cc1ccc(O)cc1)C(=O)N[C@@H](CC(C)C)C(=O)N[C@@H](CC(=O)O)C(=O)N[C@@H](CCCCN)C(=O)N[C@@H](CCC(N)=O)C(=O)N[C@@H](C)C(=O)N[C@@H](C)C(=O)NC(C)(C)C(=O)N[C@@H](CCC(=O)O)C(=O)N[C@@H](Cc1ccccc1)C(=O)N[C@H](C(=O)N[C@@H](CC(N)=O)C(=O)N[C@@H](Cc1c[nH]c2ccccc12)C(=O)N[C@@H](CC(C)C)C(=O)N[C@@H](CC(C)C)C(=O)N[C@@H](C)C(=O)NCC(=O)NCC(=O)N1CCC[C@H]1C(=O)N[C@@H](CO)C(=O)N[C@@H](CO)C(=O)NCC(=O)N[C@@H](C)C(=O)N1CCC[C@H]1C(=O)N1CCC[C@H]1C(=O)N1CCC[C@H]1C(=O)N[C@@H](CO)C(=O)N[C@@H](CCCCNC(=O)COCCOCCNC(=O)COCCOCCNC(=O)CC[C@H](NC(=O)CCCCCCCCCCCCCCCCCCC(=O)O)C(=O)O)C(N)=O)C(C)C [Compound 145] | – | – | – | – | – | – | 0.001 to 0.01 | 102 | 0.001 to 0.01 | 97 | > 1 | > 1
CC[C@H](C)[C@H](NC(=O)[C@H](CC(C)C)NC(=O)[C@H](Cc1c[nH]c2ccccc12)NC(=O)[C@H](CCC(N)=O)NC(=O)[C@@H](NC(=O)[C@H](Cc1ccccc1)NC(=O)[C@H](C)NC(=O)[C@H](CCCCNC(=O)COCCOCCNC(=O)COCCOCCNC(=O)CC[C@H](NC(=O)CCCCCCCCCCCCCCCCCCC(=O)O)C(=O)O)NC(=O)[C@H](CCC(N)=O)NC(=O)[C@H](C)NC(=O)[C@@H](NC(=O)[C@H](CCCCN)NC(=O)[C@H](CC(=O)O)NC(=O)[C@H](CC(C)C)NC(=O)C(C)(C)NC(=O)[C@@H](NC(=O)[C@H](CO)NC(=O)[C@H](Cc1ccc(O)cc1)NC(=O)[C@H](CC(=O)O)NC(=O)[C@H](CO)NC(=O)[C@@H](NC(=O)[C@H](Cc1ccccc1)NC(=O)[C@@H](NC(=O)CNC(=O)[C@H](CCC(=O)O)NC(=O)CCNC(=O)C(C)(C)c1ccc(F)cc1)[C@@H](C)O)[C@@H](C)O)[C@@H](C)CC)[C@@H](C)CC)C(C)C)C(=O)N[C@@H](C)C(=O)NCC(=O)NCC(=O)N1CCC[C@H]1C(=O)N[C@@H](CO)C(=O)N[C@@H](CO)C(=O)NCC(=O)N[C@@H](C)C(=O)N1CCC[C@H]1C(=O)N1CCC[C@H]1C(=O)N1CCC[C@H]1C(=O)N[C@@H](CO)C(N)=O [Compound 210] ({X30-βAla}-EGTFTSDYSI[Aib]LDKIAQK([AEEA-AEEA-γGlu-C20 diacid])AFVQWLIAGGPSSGAPPPS-NH2) | – | – | – | – | – | – | 0.001 to 0.01 | 101 | 0.0001 to 0.001 | 104 | > 1 | > 1
CC[C@H](C)[C@H](NC(=O)[C@H](CC(C)C)NC(=O)[C@H](Cc1c[nH]c2ccccc12)NC(=O)[C@H](CCC(N)=O)NC(=O)[C@@H](NC(=O)[C@H](Cc1ccccc1)NC(=O)[C@H](C)NC(=O)[C@H](CCCCNC(=O)COCCOCCNC(=O)COCCOCCNC(=O)CC[C@H](NC(=O)CCCCCCCCCCCCCCCCCCC(=O)O)C(=O)O)NC(=O)[C@H](CCC(N)=O)NC(=O)[C@H](C)NC(=O)[C@@H](NC(=O)[C@H](CCCCN)NC(=O)[C@H](CC(=O)O)NC(=O)[C@H](CC(C)C)NC(=O)C(C)(C)NC(=O)[C@@H](NC(=O)[C@H](CO)NC(=O)[C@H](Cc1ccc(O)cc1)NC(=O)[C@H](CC(=O)O)NC(=O)[C@H](CO)NC(=O)[C@@H](NC(=O)[C@H](Cc1ccccc1)NC(=O)[C@@H](NC(=O)CNC(=O)[C@H](CCC(=O)O)NC(=O)CCCNC(=O)CNC(=O)Nc1ccc(F)cc1)[C@@H](C)O)[C@@H](C)O)[C@@H](C)CC)[C@@H](C)CC)C(C)C)C(=O)N[C@@H](C)C(=O)NCC(=O)NCC(=O)N1CCC[C@H]1C(=O)N[C@@H](CO)C(=O)N[C@@H](CO)C(=O)NCC(=O)N[C@@H](C)C(=O)N1CCC[C@H]1C(=O)N1CCC[C@H]1C(=O)N1CCC[C@H]1C(=O)N[C@@H](CO)C(N)=O [Compound 268] ({NH(4-F-phenyl)-CO}-G[GABA]EGTFTSDYSI[Aib]LDKIAQK([AEEA-AEEA-γGlu-C20 diacid])AFVQWLIAGGPSSGAPPPS-NH2) | – | – | – | – | – | – | 0.001 to 0.01 | 103 | 0.001 to 0.01 | 95 | > 1 | > 1
CC[C@H](C)[C@H](NC(=O)[C@H](CC(C)C)NC(=O)[C@H](Cc1c[nH]c2ccccc12)NC(=O)[C@H](CCC(N)=O)NC(=O)[C@@H](NC(=O)[C@H](Cc1ccccc1)NC(=O)[C@H](C)NC(=O)[C@H](CCCCNC(=O)COCCOCCNC(=O)COCCOCCNC(=O)CC[C@H](NC(=O)CCCCCCCCCCCCCCCCCCC(=O)O)C(=O)O)NC(=O)[C@H](CCC(N)=O)NC(=O)[C@H](C)NC(=O)[C@@H](NC(=O)[C@H](CCCCN)NC(=O)[C@H](CC(=O)O)NC(=O)[C@H](CC(C)C)NC(=O)C(C)(C)NC(=O)[C@@H](NC(=O)[C@H](CO)NC(=O)[C@H](Cc1ccc(O)cc1)NC(=O)[C@H](CC(=O)O)NC(=O)[C@H](CO)NC(=O)[C@@H](NC(=O)[C@H](Cc1ccccc1)NC(=O)[C@@H](NC(=O)CNC(=O)[C@H](CCC(=O)O)NC(=O)CCNC(=O)CNC(=O)Cc1cccc(Cl)c1)[C@@H](C)O)[C@@H](C)O)[C@@H](C)CC)[C@@H](C)CC)C(C)C)C(=O)N[C@@H](C)C(=O)NCC(=O)NCC(=O)N1CCC[C@H]1C(=O)N[C@@H](CO)C(=O)N[C@@H](CO)C(=O)NCC(=O)N[C@@H](C)C(=O)N1CCC[C@H]1C(=O)N1CCC[C@H]1C(=O)N1CCC[C@H]1C(=O)N[C@@H](CO)C(N)=O [Compound 230] ({Phenylacetyl(3-Cl)}-G[βAla]EGTFTSDYSI[Aib]LDKIAQK([AEEA-AEEA-γGlu-C20 diacid])AFVQWLIAGGPSSGAPPPS-NH2) | 0.01 to 0.1 | 96 | 0.001 to 0.01 | 99 | > 1 | > 1 | – | – | – | – | – | –
